The nature of this series: Light stability of DMAX-EP (photobleaching under continuous excitation light). It is filed as physicochemical. The conditions noted are these: 0.1 M phosphate buffer pH 7.4, 0.1% DMSO, 37° C. On the procedure: 5.0 μM aqueous solutions of DMAX-EP (endoperoxide of Compound 11 in the above scheme) and DPAX-1-EP (endoperoxide of Compound 13 described in International Patent Publication WO99/51586, Example 1) [0.1 M phosphate buffer (pH 7.4) containing 0.1% DMSO as a cosolvent] were each placed in a fluorescent cell and exposed to an excitation light of 491 nm at 37° C. with stirring, and fluorescence was measured at 620 nm by using a fluorometer while the solution was continuously exposed to the excitation light.

Consider DMAX-EP, for which the “Photobleaching relative to DPAX-1-EP” value (5.0 μM aqueous solution, excitation 491 nm, fluorescence at 620 nm) is recorded as 5.4 times slower. For the same substance, the Light stability result (5.0 μM, continuous 491 nm excitation) was “excellent light stability”.

These data come from patent US20040043498A1, “Reagent for determining singlet oxygen” (priority 2003, published 2004).
